Common to all, as to format: binding
One experiment has as its target T1, FGF-R3C ECD (Homo sapiens, UniProt P22607).
T1 sequence (P22607 23-375 limits assumed): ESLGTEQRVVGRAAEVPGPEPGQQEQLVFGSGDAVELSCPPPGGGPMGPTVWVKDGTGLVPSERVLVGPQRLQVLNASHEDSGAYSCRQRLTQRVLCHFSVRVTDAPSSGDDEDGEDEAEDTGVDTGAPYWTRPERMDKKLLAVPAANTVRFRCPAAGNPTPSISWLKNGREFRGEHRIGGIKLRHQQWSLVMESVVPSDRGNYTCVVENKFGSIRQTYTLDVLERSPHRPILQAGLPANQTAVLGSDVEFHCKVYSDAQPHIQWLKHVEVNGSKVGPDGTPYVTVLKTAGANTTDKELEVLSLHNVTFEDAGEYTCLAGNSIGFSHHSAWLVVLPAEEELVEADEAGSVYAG
Description: biochemical. Further details: DNA constructs for the extracellular domain (ECD) of human FGF-; HPC4 (C); made in house; host or cells: HEK 293-6E. In short, it runs like this: (§1)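 Biolayer interferometry with biotinylated FGF-R ECD on streptavidin biosensors in PBS pH 7.4, 0.05% Tween-20, 0.01% BSA. Multi-concentration: purified peptide dilution series fitted to a multi-point KD model.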

The target in the next experiment is T2, FGF-R1C ECD (Homo sapiens, UniProt P11362).
T2 sequence (P11362 22-376 limits assumed): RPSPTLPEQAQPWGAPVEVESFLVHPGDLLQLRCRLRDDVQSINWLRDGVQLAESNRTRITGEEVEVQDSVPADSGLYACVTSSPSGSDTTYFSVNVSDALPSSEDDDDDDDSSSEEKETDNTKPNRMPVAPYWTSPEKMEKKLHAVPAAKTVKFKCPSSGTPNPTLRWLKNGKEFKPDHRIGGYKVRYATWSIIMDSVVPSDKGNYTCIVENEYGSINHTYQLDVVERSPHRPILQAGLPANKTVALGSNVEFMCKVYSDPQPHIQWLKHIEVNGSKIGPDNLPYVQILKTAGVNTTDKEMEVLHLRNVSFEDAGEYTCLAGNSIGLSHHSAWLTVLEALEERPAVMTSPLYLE
Description: biochemical. Further details: DNA constructs for the extracellular domain (ECD) of human FGF-; HPC4 (C); made in house; host or cells: HEK 293-6E. The essentials:
as §1

Another experiment concerns the target T3, FGF-R4 ECD (Homo sapiens, UniProt P22455).
T3 construct: DNA constructs for the extracellular domain (ECD) of human FGF-; HPC4 (C); made in house; host or cells: HEK 293-6E
T3 sequence (P22455 22-369 limits assumed): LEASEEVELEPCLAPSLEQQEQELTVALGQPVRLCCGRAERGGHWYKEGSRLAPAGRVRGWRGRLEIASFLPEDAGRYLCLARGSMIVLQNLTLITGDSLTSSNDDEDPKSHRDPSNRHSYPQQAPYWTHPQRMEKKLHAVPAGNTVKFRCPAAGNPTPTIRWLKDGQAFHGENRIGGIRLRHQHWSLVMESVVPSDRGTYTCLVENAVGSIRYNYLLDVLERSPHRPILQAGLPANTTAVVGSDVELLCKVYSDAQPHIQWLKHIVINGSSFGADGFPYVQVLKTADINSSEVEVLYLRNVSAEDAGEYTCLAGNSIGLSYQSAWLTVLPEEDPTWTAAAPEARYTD
Description: single concentration BLI of crude peptides. As to conditions: read-out: KD (4). The essentials: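 BLI, streptavidin sensors loaded with biotinylated receptor ECD. Single-point: ~1 μM crude peptide, PBS pH7.4/0.05% Tween-20/0.01% BSA; association then dissociation in buffer. KD corrected for UPLC-CAD-determined concentration.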

[1] abbreviates: crude T18 selection 1 (1:1:1) peptides, single concentration BLI (Table S4).

Read-outs that look alike come from different tables or passages of the source. Positions of bridges follow the written chain, without caps; N, C: chain ends. Residues, ends and D or L forms follow the SMILES beside them.

One may read the Kd as the constant that tells how readily two partners part at equilibrium. Take `CC[C@H](C)[C@@H]1NC(=O)[C@H](Cc2c[nH]c3ccccc23)NC(=O)[C@H](Cc2c[nH]c3ccccc23)NC(=O)[C@H](CCCNC(=N)N)NC(=O)[C@H](C)NC(=O)[C@H](Cc2ccc(O)cc2)NC(=O)[C@H](CCC(N)=O)NC(=O)[C@H](C)NC(=O)[C@H](CCCNC(=N)N)NC(=O)[C@H]([C@@H](C)CC)NC(=O)[C@H](CO)NC(=O)[C@H](CC(=O)O)NC(=O)[C@@H](NC(=O)[C@H](CCSC)NC(C)=O)CSSC[C@@H](C(=O)NCC(=O)N[C@@H](CO)C(=O)NCC(=O)N[C@@H](CO)C(=O)N[C@@H](CC(=O)O)C(=O)N[C@@H](Cc2ccc(O)cc2)C(=O)N[C@@H](CCCCN)C(=O)N[C@@H](CC(=O)O)C(=O)N[C@@H](CC(=O)O)C(=O)N[C@@H](CC(=O)O)C(=O)N[C@@H](CC(=O)O)C(=O)N[C@@H](CCCCN)C(N)=O)NC1=O` (Ac-MCDSIRAQYARWWICGSGSDYKDDDDK-NH2; disulfide 2-15): the Kd on FGF-R3C ECD is more than 10 µM; on FGF-R1C ECD it was more than 10 µM; on FGF-R4 ECD (setting [1]), 0.183 µM.

With `CC[C@H](C)[C@@H]1NC(=O)[C@@H](NC(=O)[C@H](CCSC)NC(C)=O)CSSC[C@@H](C(=O)NCC(=O)N[C@@H](CO)C(=O)NCC(=O)N[C@@H](CO)C(=O)N[C@@H](CC(=O)O)C(=O)N[C@@H](Cc2ccc(O)cc2)C(=O)N[C@@H](CCCCN)C(=O)N[C@@H](CC(=O)O)C(=O)N[C@@H](CC(=O)O)C(=O)N[C@@H](CC(=O)O)C(=O)N[C@@H](CC(=O)O)C(=O)N[C@@H](CCCCN)C(N)=O)NC(=O)[C@H](Cc2c[nH]cn2)NC(=O)[C@H](CO)NC(=O)[C@H]([C@@H](C)CC)NC(=O)[C@H](CC(C)C)NC(=O)[C@H](Cc2ccc(O)cc2)NC(=O)[C@H](Cc2ccc(O)cc2)NC(=O)[C@H](Cc2ccccc2)NC(=O)[C@H](CC(C)C)NC(=O)[C@H](Cc2ccc(O)cc2)NC(=O)[C@H](CCCNC(=N)N)NC1=O` (Ac-MCIRYLFYYLISHCGSGSDYKDDDDK-NH2; disulfide 2-14), the Kd was more than 10 µM on FGF-R3C ECD, more than 10 µM at FGF-R1C ECD and 0.002 µM at FGF-R4 ECD (setting [1]).

Consider `CSCC[C@H](N)C(=O)N[C@H]1CSSC[C@@H](C(=O)NCC(=O)N[C@@H](CO)C(=O)NCC(=O)N[C@@H](CO)C(=O)N[C@@H](CC(=O)O)C(=O)N[C@@H](Cc2ccc(O)cc2)C(=O)N[C@@H](CCCCN)C(=O)N[C@@H](CC(=O)O)C(=O)N[C@@H](CC(=O)O)C(=O)N[C@@H](CC(=O)O)C(=O)N[C@@H](CC(=O)O)C(=O)N[C@@H](CCCCN)C(N)=O)NC(=O)[C@H](Cc2ccc(O)cc2)NC(=O)[C@H](C(C)C)NC(=O)[C@H](Cc2ccccc2)NC(=O)[C@@H]2CCCN2C(=O)[C@H](CC(C)C)NC(=O)[C@H](Cc2c[nH]c3ccccc23)NC(=O)[C@H](CO)NC(=O)[C@H](CC(=O)O)NC(=O)[C@H](Cc2ccccc2)NC(=O)[C@H](C(C)C)NC1=O` (H-MCVFDSWLPFVYCGSGSDYKDDDDK-NH2; disulfide 2-13), for which the Kd was 0.618 µM at FGF-R3C ECD; more than 10 µM at FGF-R1C ECD; more than 10 µM at FGF-R4 ECD (crude NNK peptides, single concentration BLI (Table S3)).

`CSCC[C@H](NC(C)=O)C(=O)N[C@H]1CSSC[C@@H](C(=O)NCC(=O)N[C@@H](CO)C(=O)NCC(=O)N[C@@H](CO)C(=O)N[C@@H](CC(=O)O)C(=O)N[C@@H](Cc2ccc(O)cc2)C(=O)N[C@@H](CCCCN)C(=O)N[C@@H](CC(=O)O)C(=O)N[C@@H](CC(=O)O)C(=O)N[C@@H](CC(=O)O)C(=O)N[C@@H](CC(=O)O)C(=O)N[C@@H](CCCCN)C(N)=O)NC(=O)[C@H](Cc2c[nH]cn2)NC(=O)[C@H](Cc2c[nH]c3ccccc23)NC(=O)[C@H](Cc2ccc(O)cc2)NC(=O)[C@@H]2CCCN2C(=O)[C@H](CCC(=O)O)NC(=O)[C@H](Cc2ccc(O)cc2)NC(=O)[C@H](CC(C)C)NC(=O)[C@H](Cc2c[nH]cn2)NC(=O)[C@H](CCCNC(=N)N)NC(=O)[C@H](CC(C)C)NC1=O` (Ac-MCLRHLYEPYWHCGSGSDYKDDDDK-NH2; disulfide 2-13): the Kd on FGF-R3C ECD, on FGF-R1C ECD and on FGF-R4 ECD (setting [1]) was more than 10 µM throughout.
